Values quoted from earlier work as cited in patent US9238007B2, “Method for the production of a medicament containing tadalafil” (RATIOPHARM GMBH, priority 2007, dated 2016).

Settings: according to WO 01/08687

CN1CC(=O)N2[C@H](c3ccc4c(c3)OCO4)c3[nH]c4ccccc4c3C[C@@H]2C1=O [Tadalafil, (6R,12aR)-6-(1,3-benzodioxol-5-yl)-2-methyl-1,2,3,4,6,7,12,12a-octahydropyrazino [2,1 :6,1]pyrido[3,4-b]indole-1,4-dione]
solubility in water: about 2 μg/ml
